Source: publication PMC3404088, “Development of a Small D-Enantiomeric Alzheimer’s Amyloid-β Binding Peptide Ligand for Future In Vivo Imaging Applications” (PLoS ONE, 2012)
Square brackets hold non-standard residues; d marks the D form. Peptide text beside a SMILES is read from it. * marks the point of attachment. 5FAM = O=C1OC2(c3ccc(O)cc3Oc3cc(O)ccc32)c2ccc(C(=O)*)cc21

What was measured:
[1] = Analysis of ACI-80 stability: N-terminal glutamine vs pyroglutamate content by HPLC/ESI-MS; assay type: physicochemical; details: aqueous solution
Procedure: In solution, N-terminal glutamine peptides such as D1 are prone to convert into N-terminal pyroglutamate species: Gln-SHYRHISPAQV → Pyr-SHYRHISPAQV. Therefore, the stability of solid ACI-80, solid ACI-80-Kϕ (ϕ: fluorescein isothiocyanate, covalently linked to the peptide via a lysine (K)) and [^127I]-ACI-80 in solution was investigated by JPT Peptide Technologies GmbH, Berlin, Germany using HPLC/ESI-MS whereby the relative content of N-terminal Gln peptide and N-terminal Pyr peptide was assessed.
An important observation during initial compound stability characterization experiments was the partial conversion of the N-terminal glutamine of [^127I]-ACI-80 into pyro-glutamate. It is known that peptides with an N-terminal glutamine are prone to conversion of this residue into a pyroglutamate. Therefore, the composition of freshly synthesized and untreated ACI-80 and ACI-80-Kϕ as well as [^127I]-ACI-80 after iodination were investigated. […] It was observed that freshly synthesized ACI-80 and ACI-80-Kϕ contained only minor fractions of pyroglutamic acid while about one third of [^127I]-ACI-80 in solution already converted into N-terminal pyroglutamate species.

[2] = molecular target: T1, Aβ1–42 fibrils (Homo sapiens, UniProt P05067); test: SPR single cycle experiments (Biacore T100), heterogeneous ligand model; assay type: binding; design: Rmax1 / Rmax2 / k off2: unit not given here; details: for Rmax2 / k off1 / k off2 / k on1 / k on2 / Rmax1: PBS pH 7.4, 25°C, 30 µl/min; for Rmax1: global fit of three lowest responding concentrations
T1 construct: Aβ1–42 was dissolved in hexafluoroisopropanol (HFIP)
T1 sequence (P05067 672-713 limits assumed): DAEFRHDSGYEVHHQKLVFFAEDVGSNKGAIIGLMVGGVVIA
Procedure: Aβ1–42 fibrils were prepared as described above. Thereafter, the sample was centrifuged for 10 min at 16000×g, the supernatant discarded and this procedure repeated for 3 times. Formation of fibrils was confirmed by a standard Thioflavin-T fluorescence assay. Aβ1–42 fibrils were covalently immobilized on a CM5 sensor chip via amine coupling. Prior to immobilization of Aβ1–42 fibrils the sample was centrifuged and fibrils resuspended in 10 mM sodium acetate buffer pH 4.0. Flow cell sensor surfaces were activated with a freshly prepared solution of 0.2 M 1-ethyl–3-(3-dimethylaminopropyl)-carbodiimide (EDC) and 0.05 M N-hydroxysuccinimide (NHS) at a constant flow rate of 10 µl/min for 420 s. Aβ1–42 fibrils (∼ 110 µM monomeric Aβ1–42) were injected for 600 s with a flow rate of 10 µl/min. Deactivation of the surface was performed by injection of 1 M ethanolamine-HCl pH 8.5 at the same flow rate and duration as in the activation step. In the reference cells the deactivation step was performed directly after the activation step. All SPR experiments were performed on a Biacore T100 system with series S CM5 sensor chips at 25°C. The system was run with the Biacore T100 Control Software Version 1.1.1. PBS (10 mM sodium phosphate buffer pH 7.4, 137 mM NaCl, 2.7 mM KCl) was chosen as running buffer (as previously during fibril formation) in order to minimize alterations of fibril organization. All buffers were sterile filtered (0.22 µm). After each docking of a sensor chip the detector was normalized with BIAnormalizing solution (70% glycerol, GE Healthcare) to compensate for slight differences in detector responses of individual sensor chips. For all interaction analyses the Type 1 reagent rack was used. Siliconized sample vials were used with their corresponding rubber caps (Type 2, GE Healthcare) to minimize evaporation effects. Throughout all runs the flow rate was set to 30 µl/min. All interaction studies were performed in single-cycle mode. Here, five different concentrations of analyte were passed through a reference cell and subsequently through flow cells with immobilized ligand within the same binding cycle for 60 seconds, starting with the lowest concentration. Successive injections were performed in the order of increasing concentrations. Each following concentration was a fivefold increase of the previous. The lowest analyte concentration was chosen to be 100 nM and therefore the following were 500, 2500, 12500 and 62500 nM. Biacore data were evaluated using BiaEvaluation 4.1.1 (GE Healthcare) and Biacore T100 Evaluation Software (GE Healthcare). Obtained binding data with compounds were double referenced. This was achieved by collecting the data in dual-channel mode with a reference flow cell connected upstream of the flow cell with immobilized Aβ1–42 fibrils and the subtraction of the obtained binding responses with a blank buffer injection (PBS).

stability in aqueous solution [1]	Rmax2 [2]	k off1 [2]	k off2 [2]	k on1 [2]	k on2 [2]	Rmax1 [2]	dissociation constant (lowest K D of the two, words) [2]	Structure (SMILES)
stable in aqueous solution	19.4	0.162	0.0118	2.03e4	3.34e3	21.8	–	CC[C@@H](C)[C@@H](NC(=O)[C@@H](Cc1c[nH]cn1)NC(=O)[C@@H](CCCNC(=N)N)NC(=O)[C@@H](Cc1ccc(O)cc1)NC(=O)[C@@H](Cc1c[nH]cn1)NC(=O)[C@@H](CO)NC(=O)[C@H]1CCCN1)C(=O)N[C@H](CO)C(=O)N1CCC[C@@H]1C(=O)N[C@H](C)C(=O)N[C@H](CCC(N)=O)C(=O)N[C@H](CCCCN)C(=O)N[C@H](CCCCNC(=O)c1ccc2c(c1)C(=O)OC21c2ccc(O)cc2Oc2cc(O)ccc21)C(=O)O [ACI-89-Kϕ] (H-[dP][dS][dH][dY][dR][dH][dI][dS][dP][dA][dQ][dK][dK](5FAM)-OH; N-terminus and C-terminus assumed)
stable in aqueous solution	63.3	7.22e-3	0.0553	1.71e4	930	9.96	submicromolar range	CC[C@@H](C)[C@@H](NC(=O)[C@@H](Cc1c[nH]cn1)NC(=O)[C@@H](CCCNC(=N)N)NC(=O)[C@@H](Cc1ccc(O)cc1)NC(=O)[C@@H](Cc1c[nH]cn1)NC(=O)[C@H](N)CO)C(=O)N[C@H](CO)C(=O)N1CCC[C@@H]1C(=O)N[C@H](C)C(=O)N[C@H](CCC(N)=O)C(=O)N[C@H](CCCCN)C(=O)N[C@H](CCCCNC(=O)c1ccc2c(c1)C(=O)OC21c2ccc(O)cc2Oc2cc(O)ccc21)C(=O)O [ACI-88-Kϕ] (H-[dS][dH][dY][dR][dH][dI][dS][dP][dA][dQ][dK][dK](5FAM)-OH; N-terminus and C-terminus assumed)
stable in aqueous solution	36.2	1.84e-3	0.0407	206	1.57e3	43.3	–	CC[C@@H](C)[C@@H](NC(=O)[C@@H](Cc1c[nH]cn1)NC(=O)[C@@H](CCCNC(=N)N)NC(=O)[C@@H](Cc1ccc(O)cc1)NC(=O)[C@@H](Cc1c[nH]cn1)NC(=O)[C@@H](CO)NC(=O)[C@H](N)CCC(N)=O)C(=O)N[C@H](CO)C(=O)N1CCC[C@@H]1C(=O)N[C@H](C)C(=O)N[C@H](CCC(N)=O)C(=O)N[C@H](CCCCN)C(=O)N[C@H](CCCCNC(=O)c1ccc2c(c1)C(=O)OC21c2ccc(O)cc2Oc2cc(O)ccc21)C(=O)O [ACI-87-Kϕ] (H-[dQ][dS][dH][dY][dR][dH][dI][dS][dP][dA][dQ][dK][dK](5FAM)-OH; N-terminus and C-terminus assumed)
